Results on four compounds are retold here after article PMC6651268, “The 3S Enantiomer Drives Enolase Inhibitory Activity in SF2312 and Its Analogues” (Molecules, 2019).

The structures appear in SMILES notation. Like-named read-outs stand apart in the source and are kept apart here.

In general, IC50 refers to the concentration that gives 50% inhibition. As a reminder, the zone of inhibition is the size of the clear area around the sample on an inoculated plate.

Assay [1] concerns the target T1, ENO1 (Homo sapiens, UniProt P06733).
T1 construct: expressed in transfected cells; host or cells: D423-MG (ENO1-deleted human glioma) with ectopic ENO1
Briefly: Enolase activity, NADH-linked PK/LDH coupled fluorometric assay in native lysates of human cancer cells overexpressing ENO1. The class given is biochemical. To be noted: for IC50: lysates of D423 cells overexpressing ENO1. The method, then: We then determined Enolase inhibitory activity of (3R)-P1 and (3S)-P2 derived MethylSF2312 in native lysates from human cancer cells and E. coli overexpressing ENO1 and ENO2.
(§1) Native lysates of human cell lines were prepared using 20 mM Tris HCl, 1 mM EDTA, and 1 mM β-mercaptoethanol at pH 7.4 as described previously. Enolase activity was measured using two different methods, either by a fluorometric NADH-linked assay or a direct spectrophotometric assay via formation of PEP. In the fluorescent assay, enolase activity was measured via NADH oxidation in a pyruvate kinase–lactate dehydrogenase coupled assay as previously described. The assay is conducted in 10 mM KCl, 5 mM MgSO4, 100 mM triethanolamine at pH 7.4, with 400 µM NADH and 2 mM ADP. 2-Phosphoglycerate (2-PGA), pyruvate kinase (PK) and lactate dehydrogenase (LDH) are provided in excess, with the conversion of 2-PGA to PEP by enolase being rate limiting. PEP (with ADP) is a substrate of PK; pyruvate formed by this reaction is linked to NADH oxidation by LDH. Enolase activity is determined by measuring oxidation of NADH fluorescently by excitation at 340 nm and emission at 460 nm. The substrate concentration, if not otherwise indicated, was 5 mM 2-PGA. Fluorescence was measured using the Omega Fluorescence Plate Reader (BMG Labtech). Enolase activity was measured in native lysates of E. coli. Overnight grown saturated E. coli (DH5α) liquid culture was pelleted by centrifugation, washed and resuspended in 50 µL of lysis buffer which contains 150 mM NaCl, 50 mM Tris, 1mM EDTA, 2 mM DTT and 0.025% sodium azide. PMSF (10 mM stock solution) was then added to the lysate to make the final concentration 1 mM with 1% sodium deoxycholate. The suspension was incubated at 4 °C with constant mixing. The extract was centrifuged at 4 °C, 14,000 g for 15 min. Enolase activity in E. coli native lysates was measured directly by the appearance of PEP from 2-PGA via absorption at 240 nm. The assay medium was the same, except that all the auxiliary reagents (PK/LDH, NADH, ADP) are omitted. […]

Assay [2] concerns D423 ENO1-deleted glioma cells. Briefly: Proliferation assay of glioma cell lines by crystal violet staining. In kind it is cell-based, human. To be noted: for toxicity against ENO1-deleted versus ENO1-intact glioma cells (in words): six days of treatment, D423 ENO1-deleted vs D423 ENO1-rescued and LN319 ENO1-WT. The source says:
The cell line D423-MG was provided by Dr. Bigner. The 1p36 homozygous deletion in D423-MG spans from the CAMTA1 to SLC25A33 genes, including ENO1. The generation of isogenic ENO1 and ENO2 ectopically rescued lines was described previously. The LN319 cell line was obtained from Cell Bank of The Department of Genomic Medicine at M.D. Anderson. Cells were routinely cultured in high glucose, glutamine, and pyruvate containing Dulbecco’s modified Eagle’s medium (DMEM) with 10% fetal bovine serum (FBS).
Cell proliferation of glioma cell lines was assayed through crystal violet staining. Cells were seeded at 1500 cells/well in 96-well plates, and after 24 h, were treated with dilution series of enolase inhibitors, with each treatment concentration in duplicate wells. At the indicated time, cells were fixed with 10% formalin and stained with crystal violet. Dye extraction was performed using 10% acetic acid solution, and absorbance was read at 595 nm.

Assay [3] addresses T2, ENO2 (Homo sapiens, UniProt P09104). Description: X-ray structure of ENO2 crystals soaked with inhibitor. The class given is binding. Further details: His tag (only implied by NiNTA purification); made in house. To be noted: apo ENO2 crystals soaked with 2 mM compound; unbiased 2Fo-Fc omit map. As to the method:
MethylSF2312 was co-crystallized with Human ENO2 to determine the configuration of the active compound in the active site. Apo crystals of ENO2 were prepared using published methods and were soaked in cryoprotectant containing the racemic mixture of MethylSF2312 for 16 h prior to freezing. The resulting co-crystal structure was resolved (Table 1), with four ENO2 homodimers in the asymmetric unit of the monoclinic crystal (PDB 5EU9).
Recombinant ENO2 protein was prepared using NiNTA affinity and size exclusion chromatography as described previously Apo crystals of Human Enolase 2 were prepared by streak seeding hanging drop solutions after mixing 0.5 μL 9.1 mg mL^−1 Enolase 2 with 0.5 μL reservoir solution (200 mM ammonium acetate, 100 mM Bis-Tris and 18–22% (w/v) PEG 3350). The hanging drops were incubated at room temperature above a 500 μL reservoir. Apo crystals were subsequently soaked overnight in 1 μL drops containing 100 mM Bis-Tis, 200 mM ammonium acetate, 32% (w/v) PEG 3350 at pH 6.5, supplemented with 2 mM racemate or pure enantiomer of MethylSF2312 compound, prior to flash freezing in liquid nitrogen. X-ray diffraction datasets were collected at 100 K using a wavelength of 1.11587 Å at the Advanced Light Source Beamline 8.3.1, equipped with ADSC Q315r detector. The diffraction images were indexed and integrated using iMOSFLM [19] and scaled using AIMLESS [20]. […]

Assay [4] addresses T2, ENO2. Description: Enolase activity, NADH-linked PK/LDH coupled fluorometric assay in native lysates of human cancer cells overexpressing ENO2. In kind it is biochemical. Set-up: expressed in transfected cells; host or cells: D423-MG (ENO1-deleted human glioma) with ectopic ENO2. As to the method: (§2) To compare the effects of isomeric mixtures of MethylSF2312 and SF2312 on Enolase activity, we measured the formation PEP coupled to the oxidation of NADH via LDH/PK on human cancer cells overexpressing ENO2 [4, 14]. […] Here, we favored the direct measurement of PEP absorbance, rather than of NADH, due to the high levels of endogenous NADH oxidase activity in bacterial lysates.
Native lysates of human cell lines were prepared using 20 mM Tris HCl, 1 mM EDTA, and 1 mM β-mercaptoethanol at pH 7.4 as described previously. Enolase activity was measured using two different methods, either by a fluorometric NADH-linked assay or a direct spectrophotometric assay via formation of PEP. In the fluorescent assay, enolase activity was measured via NADH oxidation in a pyruvate kinase–lactate dehydrogenase coupled assay as previously described. The assay is conducted in 10 mM KCl, 5 mM MgSO4, 100 mM triethanolamine at pH 7.4, with 400 µM NADH and 2 mM ADP. 2-Phosphoglycerate (2-PGA), pyruvate kinase (PK) and lactate dehydrogenase (LDH) are provided in excess, with the conversion of 2-PGA to PEP by enolase being rate limiting. PEP (with ADP) is a substrate of PK; pyruvate formed by this reaction is linked to NADH oxidation by LDH. Enolase activity is determined by measuring oxidation of NADH fluorescently by excitation at 340 nm and emission at 460 nm. The substrate concentration, if not otherwise indicated, was 5 mM 2-PGA. Fluorescence was measured using the Omega Fluorescence Plate Reader (BMG Labtech). Enolase activity was measured in native lysates of E. coli. Overnight grown saturated E. coli (DH5α) liquid culture was pelleted by centrifugation, washed and resuspended in 50 µL of lysis buffer which contains 150 mM NaCl, 50 mM Tris, 1mM EDTA, 2 mM DTT and 0.025% sodium azide. PMSF (10 mM stock solution) was then added to the lysate to make the final concentration 1 mM with 1% sodium deoxycholate. The suspension was incubated at 4 °C with constant mixing. The extract was centrifuged at 4 °C, 14,000 g for 15 min. Enolase activity in E. coli native lysates was measured directly by the appearance of PEP from 2-PGA via absorption at 240 nm. The assay medium was the same, except that all the auxiliary reagents (PK/LDH, NADH, ADP) are omitted. Assays were conducted in a 96-well plated format with the direct assay performed in UV-transmissible plates.

The target of assay [5] is T3, Enolase in Escherichia coli lysates (Escherichia coli, UniProt P0A6P9).
T3 construct: Overnight grown saturated E. coli (DH5α) liquid culture was pelleted by centrifugation; endogenous in cells; host or cells: E. coli DH5α
T3 sequence (P0A6P9 whole entry): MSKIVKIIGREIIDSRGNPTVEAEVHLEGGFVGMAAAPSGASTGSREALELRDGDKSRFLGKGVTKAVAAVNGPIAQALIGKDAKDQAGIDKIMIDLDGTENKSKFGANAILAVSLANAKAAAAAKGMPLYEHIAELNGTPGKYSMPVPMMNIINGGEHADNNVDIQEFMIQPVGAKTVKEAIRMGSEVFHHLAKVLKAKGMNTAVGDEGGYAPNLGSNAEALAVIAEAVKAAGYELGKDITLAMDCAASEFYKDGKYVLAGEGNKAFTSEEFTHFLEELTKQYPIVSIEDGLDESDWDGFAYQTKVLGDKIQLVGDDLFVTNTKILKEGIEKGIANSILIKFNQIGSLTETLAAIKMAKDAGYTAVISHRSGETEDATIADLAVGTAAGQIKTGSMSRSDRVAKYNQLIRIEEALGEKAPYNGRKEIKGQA
Briefly: Enolase activity in E. coli native lysates, direct measurement of PEP formation at 240 nm. The class given is biochemical. As to the method: as §2
as §1, with “The extract was centrifuged at 4 °C, 14,000 g for 15 min.” left out, “nm.” for “nm. The assay medium was the same, except that all the auxiliary reagents (PK/LDH, NADH, ADP) are omitted.”

Assay [6] concerns E. coli (DH5α). Description: Kirby Bauer disc diffusion antibiotic sensitivity testing. In kind it is cell-based, Escherichia coli. To be noted: for zone of inhibition at 35 µg/disc: Escherichia coli, read-out: clear zone of growth inhibition. As to the method:
Finally, the antibiotic activities of SF2312 and MethylSF2312 were compared in E. coli using the disc diffusion method. A 7 mm filter paper disc imbued with 35 µg of either SF2312 or MethylSF2312 was placed on an E. coli lawn on Muller-Hinton Agar. […] Of note, growth inhibition was only observed with the addition of glucose-6-phosphate (G6P).
Kirby Bauer disc diffusion antibiotic sensitivity testing was performed on Mueller Hinton II Agar (BD #221275) or BBL™ Columbia Agar with 5% Sheep Blood (BD #221165). An overnight overnight-grown saturated E. coli (DH5α) liquid culture was diluted (1:50) in water and streaked on the agar plate to form a bacterial lawn. D-Glucose-6-phosphate (Sigma #G7250) was made in 100 mM stock solution and added to the diluted bacteria to achieve 2 mM final concentration right before streaking the plate. A 7 mm Whatman™ 3MM Chr Chromatography filter paper disc (Whatman # 3030-6189) was imbued with 7 µL of an aqueous solution of inhibitor, placed on the streaked agar plate and incubated overnight at 37 °C.

[7] abbreviates: lysates of human cancer cells (D423) overexpressing ENO2, 5 mM 2-PGA, read-out: IC50 for ENO2.

T2 sequence (P09104 whole entry): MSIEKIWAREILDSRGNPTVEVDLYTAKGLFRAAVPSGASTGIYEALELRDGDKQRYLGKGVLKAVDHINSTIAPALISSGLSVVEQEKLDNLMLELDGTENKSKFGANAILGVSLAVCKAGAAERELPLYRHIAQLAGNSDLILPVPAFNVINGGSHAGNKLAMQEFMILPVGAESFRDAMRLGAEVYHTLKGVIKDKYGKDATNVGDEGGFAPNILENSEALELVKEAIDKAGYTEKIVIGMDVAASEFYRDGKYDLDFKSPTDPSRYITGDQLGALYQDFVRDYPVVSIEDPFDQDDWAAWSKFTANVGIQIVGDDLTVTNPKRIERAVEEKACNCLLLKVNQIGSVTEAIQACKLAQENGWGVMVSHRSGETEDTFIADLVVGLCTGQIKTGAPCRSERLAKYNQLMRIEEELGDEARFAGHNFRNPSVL
T1 sequence (P06733 whole entry): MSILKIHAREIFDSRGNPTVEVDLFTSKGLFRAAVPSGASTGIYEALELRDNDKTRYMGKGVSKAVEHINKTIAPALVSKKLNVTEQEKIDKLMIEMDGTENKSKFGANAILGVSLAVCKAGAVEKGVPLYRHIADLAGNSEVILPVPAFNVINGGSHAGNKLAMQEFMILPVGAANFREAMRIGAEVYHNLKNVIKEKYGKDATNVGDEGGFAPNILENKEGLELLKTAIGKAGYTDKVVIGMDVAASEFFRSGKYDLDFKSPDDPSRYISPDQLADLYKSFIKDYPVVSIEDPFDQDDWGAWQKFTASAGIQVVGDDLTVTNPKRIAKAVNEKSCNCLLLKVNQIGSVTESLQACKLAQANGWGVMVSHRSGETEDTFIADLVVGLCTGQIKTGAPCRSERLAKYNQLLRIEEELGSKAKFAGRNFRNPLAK

For `C[C@@]1(P(=O)(O)O)CC(O)N(O)C1=O` (stereo partly drawn) [(3R)-MethylSF2312], the “fold less potent than (3S)-MethylSF2312” value in assay [1] (ENO1, ratio of IC50 values) amounted to 2000 fold. Moreover, the IC50 in assay [1] was around 15000 nM; in assay [4] (lysates of D423 cells overexpressing ENO2, read-out: IC50 for ENO2) it was around 15000 nM. In addition, the “toxicity towards ENO1-deleted glioma cells (in words)” value in assay [2] (even at 400 µM, D423 ENO1-deleted, 7 days) is reported as “minimal toxicity”. The “occupancy of the ENO2 active site in the electron density map (in words)” value in assay [3] was “no evidence of occupancy”.

For `C[C@]1(P(=O)(O)O)CC(O)N(O)C1=O` (stereo partly drawn) [(3S)-MethylSF2312], the IC50 in assay [1] and in assay [4] (setting [7]) was around 10 nM each time. In assay [5] (E. coli lysates), the “fold greater Enolase inhibitory potency compared to (3R)-MethylSF2312” value is on record as ~ 2000 fold. Further, the “concentration exhibiting toxicity to ENO1-deleted glioma cells” value in assay [2] (D423 ENO1-deleted, 7 days, crystal violet) is ~ 2 µM. Also, in assay [6] (35 µg per disc, Muller Hinton Agar and Blood Agar, with G6P, overnight 37 °C), the “zone of inhibition (in words)” value is given as “distinct zone of inhibition”. In addition, in assay [3], the “occupancy of the ENO2 active site in the electron density map (in words)” value is “occupied in 3S,5S-configuration”.

Take `CC1(P(=O)(O)O)CC(O)N(O)C1=O` (stereo not shown) [MethylSF2312, (1,5-dihydroxy-3-methyl-2-oxopyrrolidin-3-yl)phosphonic acid]: the IC50 in assay [5] (direct PEP absorbance at 240 nm, read-out: IC50, Enolase in E. coli lysates) was around 10 nM; in assay [4] (setting [7]), around 10 nM. In addition, the “toxicity against ENO1-deleted versus ENO1-intact glioma cells (in words)” value in assay [2] is on record as “selective toxicity”. Besides, the zone of inhibition at 35 µg/disc in assay [6] (7 mm disc with 35 µg, Muller-Hinton Agar, overnight, with glucose-6-phosphate) was around 24 mm.

For the compound `O=C1C(P(=O)(O)O)CC(O)N1O` (stereo not shown) [SF2312, (1,5-dihydroxy-2-oxopyrrolidin-3-yl)phosphonic acid], the IC50 in assay [5] and in assay [4] was around 10 nM throughout. For the same compound, the “toxicity against ENO1-deleted versus ENO1-intact glioma cells (in words)” value in assay [2] is listed as “selective toxicity”. In addition, the zone of inhibition at 35 µg/disc in assay [6] is around 24 mm.
